The term IC50 denotes the midpoint of a concentration-inhibition curve.

This is an account of results in patent publication US11524966B1 (Valo Early Discovery, Inc., priority 2017, dated 2022).

For the experiment, the target named is T1, USP28 (His-tagged USP28-FL-mammalian) (Homo sapiens, UniProt Q96RU2).
T1 construct: Expression of USP28 (1-1077)-TEV-6*His (pTT5 vector); made in house; host or cells: Expi293f cells (pTT5 vector)
T1 sequence (Q96RU2 1-1077): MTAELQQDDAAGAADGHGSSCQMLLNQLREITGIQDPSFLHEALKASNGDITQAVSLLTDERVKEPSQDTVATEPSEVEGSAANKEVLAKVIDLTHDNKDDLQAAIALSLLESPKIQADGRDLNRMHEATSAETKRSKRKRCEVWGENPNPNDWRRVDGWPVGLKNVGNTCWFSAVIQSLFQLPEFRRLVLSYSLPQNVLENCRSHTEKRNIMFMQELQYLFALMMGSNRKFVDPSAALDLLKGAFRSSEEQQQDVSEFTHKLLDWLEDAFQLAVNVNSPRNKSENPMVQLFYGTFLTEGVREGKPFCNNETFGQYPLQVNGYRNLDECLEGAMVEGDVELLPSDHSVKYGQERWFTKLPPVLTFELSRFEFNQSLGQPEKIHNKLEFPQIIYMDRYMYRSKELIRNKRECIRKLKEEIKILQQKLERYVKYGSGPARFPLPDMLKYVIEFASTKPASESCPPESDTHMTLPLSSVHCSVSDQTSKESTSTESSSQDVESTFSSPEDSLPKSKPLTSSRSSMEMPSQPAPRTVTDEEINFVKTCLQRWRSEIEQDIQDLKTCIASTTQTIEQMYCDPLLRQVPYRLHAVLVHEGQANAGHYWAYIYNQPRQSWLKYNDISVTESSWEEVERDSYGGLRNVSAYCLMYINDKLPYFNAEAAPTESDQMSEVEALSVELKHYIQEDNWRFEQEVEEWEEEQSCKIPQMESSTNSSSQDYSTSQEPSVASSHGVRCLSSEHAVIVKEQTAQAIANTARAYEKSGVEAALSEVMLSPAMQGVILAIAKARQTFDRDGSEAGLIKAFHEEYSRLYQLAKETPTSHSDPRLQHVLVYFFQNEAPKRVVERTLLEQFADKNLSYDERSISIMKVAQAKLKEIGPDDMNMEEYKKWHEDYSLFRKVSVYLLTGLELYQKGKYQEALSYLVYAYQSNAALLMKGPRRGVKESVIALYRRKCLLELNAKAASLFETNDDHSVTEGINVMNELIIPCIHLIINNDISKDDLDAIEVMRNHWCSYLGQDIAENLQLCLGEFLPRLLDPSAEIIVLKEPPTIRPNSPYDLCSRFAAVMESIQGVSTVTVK
Description: Ubiquitin-Rhodamine 110 Assay for USP28 Activity, Example A-1(a). Format: biochemical. Conditions: Ubiquitin-Rhodamine 110 assay, Example A-1(a); read-out: USP28 A-1(a) IC50 range. Summed up: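 IC50 from 4-parameter logistic fit of percent inhibition versus no-enzyme and DMSO controls; compounds 25 μM to 1.3 nM, 3-fold. Ub-Rh110 cleavage (25 nM, below Km) by […] mammalian-expressed USP28-FL-His ran 45 min at room temperature, stopped with 10 mM citric acid, read ex 485/em 535.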

Bounds are passed on as bounds.

As for `Cc1ccc2c(N)c(C(=O)N[C@H]3CCc4nc(N5CC6(C[C@H](N)CO6)C5)ccc4C3)sc2n1` [Example 399, 3-amino-N-[(6S)-2-[(7S)-7-amino-5-oxa-2-azaspiro[3.4]octan-2-yl]-5,6,7,8-tetrahydroquinolin-6-yl]-6-methylthieno[2,3-b]pyridine-2-carboxamide], the IC50 lay within 1 to 50 nM.

Take `CCn1ccc2cc(C(=O)N[C@H]3CCc4nc(N5C[C@H](NC)[C@@H](OC)C5)ccc4C3)cnc21` [Example 402, 1-ethyl-N-[(6S)-2-[(3S,4S)-3-methoxy-4-(methylamino)pyrrolidin-1-yl]-5,6,7,8-tetrahydroquinolin-6-yl]-1H-pyrrolo[2,3-b]pyridine-5-carboxamide]: the IC50 fell in the range of 200 to 2000 nM.

Regarding `CCn1ccc2cc(C(=O)N[C@H]3CCc4nc(N5C[C@H](N)C6(COC6)C5)ccc4C3)cnc21` [Example 403, N-[(6S)-2-[(8R)-8-amino-2-oxa-6-azaspiro[3.4]octan-6-yl]-5,6,7,8-tetrahydroquinolin-6-yl]-1-ethyl-1H-pyrrolo[2,3-b]pyridine-5-carboxamide], the IC50 was more than 2000 nM.

On to `CCn1ccc2cc(C(=O)N[C@H]3CCc4nc(N5C[C@@H](N)C6(COC6)C5)ccc4C3)cnc21` [Example 404, N-[(6S)-2-[(8S)-8-amino-2-oxa-6-azaspiro[3.4]octan-6-yl]-5,6,7,8-tetrahydroquinolin-6-yl]-1-ethyl-1H-pyrrolo[2,3-b]pyridine-5-carboxamide], for which the IC50 lay within 200 to 2000 nM.

On to `Cc1ccc2c(N)c(C(=O)N[C@H]3CCc4nc(N5CC[C@@]6(C5)OCC[C@H]6N)ccc4C3)sc2n1` [Example 405, 3-amino-N-[(6S)-2-[(4R,5S)-4-amino-1-oxa-7-azaspiro[4.4]nonan-7-yl]-5,6,7,8-tetrahydroquinolin-6-yl]-6-methylthieno[2,3-b]pyridine-2-carboxamide], for which the IC50 was 50 to 200 nM.

Turning to `Cc1ccc2c(N)c(C(=O)N[C@H]3CCc4nc(N5CC[C@]6(C5)OCC[C@@H]6N)ccc4C3)sc2n1` [Example 406, 3-amino-N-[(6S)-2-[(4S,5R)-4-amino-1-oxa-7-azaspiro[4.4]nonan-7-yl]-5,6,7,8-tetrahydroquinolin-6-yl]-6-methylthieno[2,3-b]pyridine-2-carboxamide], the IC50 is 200 to 2000 nM.

Turning to `Cc1ccc2c(N)c(C(=O)N[C@H]3CCc4nc(N5CC[C@@]6(C5)OCC[C@@H]6N)ccc4C3)sc2n1` [Example 407, 3-amino-N-[(6S)-2-[(4S,5S)-4-amino-1-oxa-7-azaspiro[4.4]nonan-7-yl]-5,6,7,8-tetrahydroquinolin-6-yl]-6-methylthieno[2,3-b]pyridine-2-carboxamide], the IC50 was 50 to 200 nM.

`Cc1ccc2c(N)c(C(=O)N[C@H]3CCc4nc(N5CC[C@]6(C5)OCC[C@H]6N)ccc4C3)sc2n1` [Example 408, 3-amino-N-[(6S)-2-[(4R,5R)-4-amino-1-oxa-7-azaspiro[4.4]nonan-7-yl]-5,6,7,8-tetrahydroquinolin-6-yl]-6-methylthieno[2,3-b]pyridine-2-carboxamide]: the IC50 lay in the range of 50 to 200 nM.

`Cc1ccc2c(N)c(C(=O)N[C@H]3COc4cc(N5CC[C@]6(C5)OCC[C@H]6N)ccc4C3)sc2n1` [Example 410, 3-amino-N-[(3R)-7-[(4R,5R)-4-amino-1-oxa-7-azaspiro[4.4]nonan-7-yl]-3,4-dihydro-2H-1-benzopyran-3-yl]-6-methylthieno[2,3-b]pyridine-2-carboxamide]: the IC50 fell in the range of 1 to 50 nM.

On to `Cc1ccc2c(N)c(C(=O)N[C@H]3COc4cc(N5CC[C@@]6(C5)OCC[C@@H]6N)ccc4C3)sc2n1` [Example 411, 3-amino-N-[(3R)-7-[(4S,5S)-4-amino-1-oxa-7-azaspiro[4.4]nonan-7-yl]-3,4-dihydro-2H-1-benzopyran-3-yl]-6-methylthieno[2,3-b]pyridine-2-carboxamide], for which the IC50 fell in the range of 1 to 50 nM.

Take `COC[C@H]1[C@H](N)CCN1c1ccc2c(n1)CC[C@H](NC(=O)c1sc3nc(C)ccc3c1N)C2` [Example 419, 3-amino-N-[(6S)-2-[(2R,3R)-3-amino-2-(methoxymethyl)pyrrolidin-1-yl]-5,6,7,8-tetrahydroquinolin-6-yl]-6-methylthieno[2,3-b]pyridine-2-carboxamide]: the IC50 lay in the range of 50 to 200 nM.

In the case of `COC[C@@H]1[C@@H](N)CCN1c1ccc2c(n1)CC[C@H](NC(=O)c1sc3nc(C)ccc3c1N)C2` [Example 420, 3-amino-N-[(6S)-2-[(2S,3S)-3-amino-2-(methoxymethyl)pyrrolidin-1-yl]-5,6,7,8-tetrahydroquinolin-6-yl]-6-methylthieno[2,3-b]pyridine-2-carboxamide], the IC50 is 1 to 50 nM.

Regarding `CCn1ccc2cc(C(=O)N[C@H]3CCc4nc(N5C[C@H](N)[C@@H](C(F)(F)F)C5)ccc4C3)cnc21` [Example 421, N-[(6S)-2-[(3R,4S)-3-amino-4-(trifluoromethyl)pyrrolidin-1-yl]-5,6,7,8-tetrahydroquinolin-6-yl]-1-ethyl-1H-pyrrolo[2,3-b]pyridine-5-carboxamide], the IC50 was 50 to 200 nM.

For `CCn1ccc2cc(C(=O)N[C@H]3CCc4nc(N5C[C@@H](N)[C@H](C(F)(F)F)C5)ccc4C3)cnc21` [Example 422, N-[(6S)-2-[(3S,4R)-3-amino-4-(trifluoromethyl)pyrrolidin-1-yl]-5,6,7,8-tetrahydroquinolin-6-yl]-1-ethyl-1H-pyrrolo[2,3-b]pyridine-5-carboxamide], the IC50 is 200 to 2000 nM.

For the compound `Cc1ccc2c(N)c(C(=O)N[C@H]3COc4cc(N5C[C@@H](CF)[C@@H](N)C5)ccc4C3)sc2n1` [Example 423, 3-amino-N-[(3R)-7-[(3R,4R)-3-amino-4-(fluoromethyl)pyrrolidin-1-yl]-3,4-dihydro-2H-1-benzopyran-3-yl]-6-methylthieno[2,3-b]pyridine-2-carboxamide], the IC50 is 1 to 50 nM.

Turning to `Cc1ccc2c(N)c(C(=O)N[C@H]3COc4cc(N5C[C@@H](N)[C@@H]6OCC[C@@H]65)ccc4C3)sc2n1` [Example 425, N-[(3R)-7-[(3aS,6R,6aS)-6-amino-hexahydro-2H-furo[3,2-b]pyrrol-4-yl]-3,4-dihydro-2H-1-benzopyran-3-yl]-3-amino-6-methylthieno[2,3-b]pyridine-2-carboxamide], the IC50 is 1 to 50 nM.

Consider `Cc1ccc2c(N)c(C(=O)N[C@H]3COc4cc(N5C[C@H](N)[C@H]6OCC[C@H]65)ccc4C3)sc2n1` [Example 426, N-[(3R)-7-[(3aR,6S,6aR)-6-amino-hexahydro-2H-furo[3,2-b]pyrrol-4-yl]-3,4-dihydro-2H-1-benzopyran-3-yl]-3-amino-6-methylthieno[2,3-b]pyridine-2-carboxamide], for which the IC50 lay in the range of 1 to 50 nM.

For `CO[C@]1(C)CN(c2ccc3c(n2)CC[C@H](NC(=O)c2sc4nc(C)ccc4c2N)C3)C[C@@H]1N` [Example 427, 3-amino-N-[(6S)-2-[(3R,4S)-4-amino-3-methoxy-3-methylpyrrolidin-1-yl]-5,6,7,8-tetrahydroquinolin-6-yl]-6-methylthieno[2,3-b]pyridine-2-carboxamide], the IC50 was in the range of 50 to 200 nM.

Regarding `CO[C@@]1(C)CN(c2ccc3c(n2)CC[C@H](NC(=O)c2sc4nc(C)ccc4c2N)C3)C[C@H]1N` [Example 428, 3-amino-N-[(6S)-2-[(3S,4R)-4-amino-3-methoxy-3-methylpyrrolidin-1-yl]-5,6,7,8-tetrahydroquinolin-6-yl]-6-methylthieno[2,3-b]pyridine-2-carboxamide], the IC50 lay in the range of 50 to 200 nM.

For `Cc1ccc2c(N)c(C(=O)N[C@H]3CCc4nc(N5C6CC(N)CC5CS(=O)(=O)C6)ccc4C3)sc2n1` (stereo partly drawn) [Example 429, 3-amino-N-[(6S)-2-{7-amino-3,3-dioxo-3λ^6-thia-9-azabicyclo[3.3.1]nonan-9-yl}-5,6,7,8-tetrahydroquinolin-6-yl]-6-methylthieno[2,3-b]pyridine-2-carboxamide], the IC50 was 1 to 50 nM.

`Cc1ccc2c(N)c(C(=O)N[C@H]3CCc4nc(N5C[C@H](N)[C@]6(CCOC6)C5)ccc4C3)sc2n1` [Example 430, 3-amino-N-[(6S)-2-[(5S,9R)-9-amino-2-oxa-7-azaspiro[4.4]nonan-7-yl]-5,6,7,8-tetrahydroquinolin-6-yl]-6-methylthieno[2,3-b]pyridine-2-carboxamide]: the IC50 lay within 50 to 200 nM.
